Experimental data reported in patent US20170058314A1, “NOVEL METHODOLOGY FOR IDENTIFYING ANTI-PERSISTER ACTIVITY AND ANTIMICROBIAL SUSCEPTIBILITY FOR BORRELIA BURGDORFERI AND OTHER BACTERIA” (priority 2014, published 2017).
Converted amounts (≈) assume the structure as drawn. Where two headings read alike, the source gives them in different places.

Key:
[1] = test system: E. coli strains (W3110, UTI89, CFT073, KTE181); test: Rapid SYBR Green/PI antibiotic susceptibility test; format: cell-based, Escherichia coli; conditions: for percent killed, sensitive strain W3110: ampicillin 100 μg/mL, others 25 μg/mL; for percent killed, resistant strain KTE181: ampicillin 100, trimethoprim 25, streptomycin 25 μg/mL; for cut-off (averaged proportion of killed cells) for resistant strains / cut-off (averaged proportion of killed cells) for susceptible strains: ampicillin, trimethoprim 5 μg/mL
[2] = test system: stationary phase B. burgdorferi persisters (strain B31); test: SYBR Green I/PI viability assay (plate reader), FDA-approved drug library screen; conditions: for Ratio of Green/Red fluorescence, Primary screening / Ratio of Green/Red fluorescence, Rescreening (first column) / Ratio of Green/Red fluorescence, Rescreening (second column): 50 μM, 7 days, stationary phase; for viability at 50 µM: Borreliella burgdorferi, 168 h, read-out: Residual viable cells (regression equation, SYBR Green I/PI assay)
[3] = test system: B. burgdorferi (growing, strain B31); conditions: actively growing B. burgdorferi; Feng, Wang, Shi, et al., 2014; cited from earlier work
[4] = test system: round body form of B. burgdorferi; test: SYBR Green I/PI assay on amoxicillin-induced round body form
[5] = test system: B. burgdorferi (growing, strain B31); test: MIC determination, standard microdilution method; format: cell-based, Borrelia burgdorferi; conditions: for sensitivity of log phase / multiplying B. burgdorferi (words, FIG. 12): MIC test
[6] = test system: log phase and stationary phase B. burgdorferi culture; test: Antibiotic exposure assay, SYBR Green I/PI (drugs alone and combinations); conditions: for viability at 10 µg/mL: Borreliella burgdorferi, 168 h
Procedure: (§1) To qualitatively determine the effect of antibiotics, 10 μL of each compound from the pre-diluted plate or pre-diluted stock was added to stationary phase B. burgdorferi culture in the 96-well plate. The final volume per well was adjusted to 100 μL at a concentration of 10 μg/mL for each antibiotic. Plates were sealed and placed in a 33° C. incubator for 7 days. The SYBR Green I/PI viability assay was used to assess the live and dead cells after antibiotic exposure as described (Feng, Wang, Shi, et al., 2014). Briefly, 10 μL of SYBR Green I (10,000×stock, Invitrogen) was mixed with 30 μL propidium iodide (PI, 20 mM) into 1.0 mL of sterile dH2O. Then, 10 μL of staining mixture was added to each well and mixed thoroughly. The plates were incubated at room temperature in the dark for 15 minutes followed by plate reading at excitation wavelength at 485 nm and the fluorescence intensity at 535 nm (green emission) and 635 nm (red emission) in microplate reader (HTS 7000 plus Bio Assay Reader, PerkinElmer Inc., USA). With least-square fitting analysis, the regression equation and regression curve of the relationship between percentage of live bacteria and green/red fluorescence ratios was obtained. The regression equation was used to calculate the percentage of live cells in each well of the 96-well plate.
To qualitatively determine the effect of antibiotics, 10 μL of each compound (final concentration 50 μM) from the pre-diluted plate or pre-diluted stock was added to round body form or stationary phase B. burgdorferi culture in the 96-well plate. The final volume per well was adjusted to 100 μL. Plates were sealed and placed in a 33° C. incubator for 7 days. The SYBR Green I/PI viability assay was used to assess the live and dead cells after antibiotic exposure as described (Feng, Wang, Shi, et al., 2014). Briefly, 10 μL of SYBR Green I (10,000×stock, Invitrogen) was mixed with 30 μL propidium iodide (PI, 20 mM, Sigma-Aldrich) into 1.0 mL of sterile dH2O. Then, 10 μL staining mixture was added to each well and mixed thoroughly. The plates were incubated at room temperature in the dark for 15 minutes followed by plate reading at excitation wavelength at 485 nm and the fluorescence intensity at 535 nm (green emission) and 635 nm (red emission) in microplate reader (HTS 7000 plus Bio Assay Reader, PerkinElmer Inc., USA). With least-square fitting analysis, the regression equation and regression curve of the relationship between percentage of live and dead bacteria as shown in green/red fluorescence ratios was obtained. The regression equation was used to calculate the percentage of live cells in each well of the 96-well plate.
Round body form and ten day old stationary phase (in brackets) B. burgdorferi culture was treated with 10 μg/mL drugs or their combinations for 7 days. Residual viable B. burgdorferi was calculated according to the regression equation and ratio of Green/Red fluorescence obtained by SYBR Green I/PI assay as described (Feng, Wang, Shi, et al., 2014). Direct microscopy counting was employed to rectify the results of the SYBR Green I/PI assay. […] Abbreviation: Dox, doxcycline; CefP, cefoperazone; DAP, daptomycin; CefM, cefmetazole; Scp, sulfachlorpyridazine; Art, artemisinin; Nft, nitrofurantoin.

[7] = test system: stationary phase B. burgdorferi persisters (strain B31); test: epifluorescence microscope counting after SYBR Green I/PI staining, FDA drug screen; conditions: Borreliella burgdorferi, 168 h, read-out: Residual viable cells (epifluorescence microscope counting)
[8] = test system: B. burgdorferi log and stationary phase cultures; test: epi-fluorescence microscope counting after antibiotic exposure (persister frequency, planktonic forms); format: cell-based, Borrelia burgdorferi; conditions: 10-day-old stationary phase culture, 10 μg/mL, 7 days, FIG. 17A
Procedure: Specimens were examined on a Nikon Eclipse E800 microscope equipped with differential interference contrast (DIC) and epi-fluorescence illumination, and recorded with a Spot slider color camera. Cell proliferation assays were performed by direct counting using a bacterial counting chamber (Hausser Scientific Partnership) and DIC microscopy. SYBR Green I/PI assay was performed to assess the viability of B. burgdorferi. The ratio of live (green) and dead (red) B. burgdorferi was calculated by counting these cells using a bacterial counting chamber and epi-fluorescence microscopy. The three representative images of every sample were captured for quantitative analysis. Image Pro-Plus software was applied for measuring the biomass (fluorescence intensity) of different forms (spirochetes, round body, and microcolony) of B. burgdorferi as previously described (Shopov and Williams, 2000).
as §1
Therefore, the frequency of B. burgdorferi persisters in log phase and stationary phase cultures was assessed using the SYBR Green I/PI viability assay after exposure of the cultures to antimicrobials. E. coli culture was used as a control after exposure to antibiotics to validate the SYBR Green I/PI viability assay for persister frequency assessment.

[9] = test system: stationary phase B. burgdorferi; test: Subculture test of drug-treated stationary phase B. burgdorferi; format: cell-based, Borrelia burgdorferi
Procedure: Seven-day-old B. burgdorferi culture (1×10^7 spirochetes/mL) (500 μL) was treated with drugs or drug combinations in Eppendorf tubes. After incubation at 33° C. for 7 days without shaking, the cells were collected by centrifugation and rinsed with 1 mL fresh BSK-H medium followed by resuspension in 500 μL fresh BSK-H medium without antibiotics. Then 50 μL of cell suspension was transferred to 1 mL fresh BSK-H medium for subculture at 33° C. for 2 weeks. Cell proliferation was assessed using SYBR Green I/PI assay and bacterial counting chamber (Hausser Scientific Partnership) by microscopy as described above.

[10] = test system: round body form of B. burgdorferi; test: Subculture test of drug-treated round body form
Procedure: For induction of round body form of B. burgdorferi, B. burgdorferi spirochetes (1×10^5 spirochetes/mL) were cultured in BKS-H medium for 6 days without shaking. After the 6-day incubation, amoxicillin at a final concentration of 50 μg/mL was added to the culture for round body form induction. After 72 h induction at 33° C., the round body forms of B. burgdorferi were examined by the microscopy. The round body cells (100 μL) were transferred to 96-well tissue culture microplates for evaluation of the effects of antibiotic treatment.

[11] = 10 μg/mL, 7 days treatment, then subculture
[12] = 10 μg/mL drugs or combinations, 7 days

Row | Compound | percent killed, sensitive strain W3110 ([1]; 30 minutes) [%] | percent killed, resistant strain KTE181 ([1]; 30 minutes) [%] | cut-off (averaged proportion of killed cells) for resistant strains ([1]; streptomycin 100 μg/mL) | cut-off (averaged proportion of killed cells) for susceptible strains ([1]; streptomycin 100 μg/mL) | Ratio of Green/Red fluorescence, Primary screening [2] | Ratio of Green/Red fluorescence, Rescreening (first column) [2] | Ratio of Green/Red fluorescence, Rescreening (second column) [2] | viability at 50 µM [2] [%] | sensitivity of log phase / multiplying B. burgdorferi (words, FIG. 12) [5] | viability at 50 µM [7] [%] | also measured
1 | COc1cc(Cc2cnc(N)nc2N)cc(OC)c1OC [trimethoprim] | 47 | 1 | -0.2 | −0.5 | – | – | – | – | – | – | percent killed, resistant strain CFT073 ([1]; 30 minutes, trimethoprim 25 μg/mL): 22%
2 | [H]/N=C(/N)N[C@H]1[C@H](O)[C@@H](O)[C@H](O[C@@H]2O[C@@H](C)[C@](O)(C=O)[C@H]2O[C@@H]2O[C@@H](CO)[C@H](O)[C@@H](O)[C@@H]2NC)[C@@H](N/C(N)=N\[H])[C@@H]1O [Streptomycin] | 29 | 0 | −0.1 | −0.6 | 6.72 | 6.93 | 6.76 | 45 | – | – | cut-off (averaged proportion of killed cells) for intermediate resistance ([1]; streptomycin 100 μg/mL): −0.5
3 | CC(C)/N=c1\cc2n(-c3ccc(Cl)cc3)c3ccccc3nc-2cc1Nc1ccc(Cl)cc1 [Clofazimine] | – | – | – | – | 6.56 | 6.23 | 6.02 | 32 | less potent | 45 | MIC (previous study) [3]: 6.25 µg/mL (≈ 13.2 µM); viability at 50 µM ([4]; Borreliella burgdorferi, 168 h, read-out: Residual viable cells (SYBR Green I/PI assay)): 32%; Ratios of green/red fluorescence, Primary screening ([4]; round body form, 50 μM, 7 days): 6.29; Ratios of green/red fluorescence, Rescreening (first column) ([4]; round body form, 50 μM, 7 days): 6.22; Ratios of green/red fluorescence, Rescreening (second column) ([4]; round body form, 50 μM, 7 days): 6.24; MIC ([5]; Borreliella burgdorferi, growing B. burgdorferi, read-out: MIC): 6.25 µg/mL (≈ 13.2 µM); viability at 10 µg/mL ([6]; read-out: Live Cell % (residual viable B. burgdorferi)): 73%
4 | CCN1CCN(C(=O)N[C@@H](C(=O)N[C@@H]2C(=O)N3C(C(=O)O)=C(CSc4nnnn4C)CS[C@H]23)c2ccc(O)cc2)C(=O)C1=O [Cefoperazone] | – | – | – | – | 6.54 | 6.32 | 6.23 | 34 | very sensitive | 37 | planktonic form cells remaining green (live) [8]: 52%; G/R ratio immediately after treatment ([9]; 10 μg/mL, 7 days): 6.60; G/R ratio after 7 day subculture [9, 11]: 6.13; G/R ratio after 15 day subculture [9, 11]: 6.95; Spirochetes after 7 day subculture (microscope counting) [9, 11]: 1.5 × 10^6; Spirochetes after 15 day subculture (microscope counting) [9, 11]: 5 × 10^6; viability at 10 µg/mL ([9]; Borreliella burgdorferi, 168 h, read-out: Residual viable cells (epifluorescence microscope counting)): 61%; Live cell %, round body form [4, 12]: 30%; Spirochetes number After 10 day subculture [10, 11]: 9 × 10^5; Spirochetes number After 20 day subculture [10, 11]: 4 × 10^6; viability at 10 µg/mL ([10]; Borreliella burgdorferi, 168 h, read-out: Residual viable cells): 33%; Live cell %, ten day old stationary phase culture (in brackets) [6, 12]: 64%; viability at 10 µg/mL ([6]; read-out: Live Cell % (residual viable B. burgdorferi), ten-day-old stationary phase culture enriched with micro-colonies, 10 μg/mL each drug, 7 days): 64%
